Experimental data reported in US11202871B2, “Devices for evaporation and inhalation of active agents” (Emplicure AB, priority 2016, dated 2021).
Structures can show the parent of a compound that is named as a salt. Where two headings read alike, the source gives them in different places.

Columns and labels:
[1] = Oven heating of aluminium oxide ceramic discs loaded with ibuprofen; amount remaining by UV; type: physicochemical; conditions: Al2O3 discs, oven 250° C. for 15 minutes
Protocol: Ceramic discs comprising ibuprofen (IOL Chemicals and Pharmaceuticals Ltd, India) were prepared using aluminium oxide (Al2O3; Keranova, Sweden) as follows.
(§3) Ceramic discs (Al2O3) with different pore sizes (0.25, 1, 6, 15 and 30 μm) were prepared in two sizes: (i) 63 mm in diameter and 6.3 mm in thickness (pore sizes 0.25, 1 and 6 μm); and (ii) 48 mm in diameter and 6.3 mm in thickness (pore sizes 15 and 30 μm). The porosity was approximately 40% vol and the density 3.75 g/cm^3 for all discs according to product specification.
The discs (pore sizes 0.25, 1, 6, 15 and 30 μm) were soaked in a 400 ml in phosphate buffer with pH 7.4 (one phosphate buffer saline tablet (Sigma-Aldrich, USA) dissolved in 200 ml deionized water) with a concentration of 408.5 μg/ml ibuprofen for 24 hours. The discs were dried in room temperature for 24 hours. […] All discs were measured for concentration of ibuprofen in 400 ml phosphate buffer pH 7.4 at 37° C. (USP paddle method (paddle speed 50 rpm), VanKel 7025, Varian Inc, USA) and the concentration for ibuprofen was measured using a UV spectrophotometer Shimadzu 1800, Japan at a wavelength of 220 nm to determine the amount of ibuprofen in the ceramic discs. The amount of ibuprofen in control discs was measured after 15 hours (i.e. after maximum drug release) and in heat treated discs after 1.5 hours (i.e. the maximal amount drug was at this time point released).

[2] = Oven heating of Al2O3 rods soaked in sumatriptan succinate solution; type: physicochemical
Excerpt: Aluminium oxide ceramic rods were obtained from […] (Sweden): […] Oven […] 218 was obtained from Wilfa, (Norway).

[3] = Oven heating of calcium sulphate coins pre-loaded with sumatriptan succinate; type: physicochemical; conditions: pre-loaded calcium sulphate coins (0.07 g/g calcium sulphate); oven approx. 250° C.
[4] = for amount of nicotine detected in the reference sample (not heated) / nicotine detected in coins after heating versus reference: pure nicotine (20 mg) dispensed; for amount of nicotine detected in the reference sample (not heated): dried 24 hours
[5] = calcium sulphate rods soaked 24 hours in pure nicotine; heated 5*10 sec.; max 315° C., 6 W
Excerpt: Aluminium oxide ceramic rods and calcium sulphate rods were obtained as described in Example 3. Nicotine and nicotine solutions were supplied and applied, and nicotine levels were detected as described in Example 3.
Samples were heated using a prototype e-cigarette device (X-Cube II, Smoke) obtained from Devex Mekatronik AB (Sweden). The device is derived from the commercially available e-cigarette X-Cube.
The sample in the device was heated up by a coil that is wrapped around the sample.
The end of the device was connected to a vial via a silicon hose. The vial contained 1 ml of deionised water. To simulate smoking a rod was put into the device and puffing was performed. Puffing involves a sequence of 5 puffs that are each 10 seconds long. After puffing, the hose was removed and flushed with the water. The water was analysed for concentration of nicotine.

[6] = calcium sulphate coins, nicotine solution 50 μl, 18 mg/ml dispensed
Excerpt: Calcium sulphate coins were obtained as described in Example 3. For the indirect induction test a magnet was molded into the coin. Nicotine and nicotine solutions were supplied and applied, and nicotine levels were detected as described in Example 3.
Metal plate for induction cooker was obtained from Haneström (Sweden). Induction cooker Wilfa ICP-2000 was obtained from Media Markt (Sweden). Magnets (10*1 mm, Samarium Cobalt magnets, 0.4 kg pull) were obtained from first4magnets (UK). IR-thermometer (MS6520A) was obtained from Mastech (USA).
Heat treatment by indirect induction was carried out by placing a metal plate onto the induction cooker. The ceramic coins containing a magnet was applied onto the metal plate and heated on maximum effect (exact temperature was not measured; see FIG. 10).

[7] = Liquid/Powder 0.4 (w/w)
Protocol: Calcium sulphate alpha hemihydrate (CaS) was obtained from Bo Ehrlander AB (Sweden). Shaped silicon rubbers were used as molds for coins (diameter: 12 mm, thickness: 2 mm). The calcium sulphate was mixed with a nicotine solution with a concentration of 5 or 20 mg/ml of nicotine (Liquid/Powder ratio of 0.4 (w/w)) to form a homogenous paste, which was filled in the rubber molds. Once the paste was applied, the molds were set to dry for at least 12 h under ambient conditions.
The temperature was set to approximately 200° C.
The sample was characterized by UV-spectrophotometer at a wavelength of 219 nm. The amount nicotine in the samples were then calculated.

[8] = Al2O3 discs, oven 188° C. for 15 minutes
Protocol: as §3
The discs were dried in room temperature for 24 hours. The discs were heated in an oven at 188° C. for 15 minutes, the control discs were not heated.

[9] = Excerpt: (§1) Calcium sulphate alpha hemihydrate (CaS) was obtained from Bo Ehrlander AB (Sweden). Clonidine hydrochloride was obtained from PCAS (Finland). Shaped silicon rubbers were used as molds for coins (diameter: 12 mm, thickness: 2 mm). The calcium sulphate was mixed with powder of Clonidine hydrochloride (0.07 g Clonidine hydrochloride/g calcium sulphate) and deionised water (Liquid/Powder ratio of 0.4 (w/w)) to form a homogenous paste, which was used to fill the rubber molds. Once the paste had been applied, the molds were set to dry for at least 12 h under ambient conditions.
The oven temperature was set to approximately 250° C.
(§2) Each coin was weighed and immersed into a beaker containing 200 ml of deionised water. […] The sample was characterized by Shimadzu LC-2030 (Germany) HPLC system with a Genesis C18 analytical column 4 μm (100×2.1 mm i.d.) with a mobile phase of acetonitrile/phosphoric acid, pH 3 (11/89). The wavelength was set to 220 nm.
The reference samples represent the amount of clonidine hydrochloride mg/g calcium sulphate that was loaded before heat treatment.

[10] = calcium sulphate coins, solution 50 μl, 5 mg/ml dispensed; oven approx. 250° C., 0 to 15 minutes
Protocol: as §1, with “with” for “with powder of Clonidine hydrochloride (0.07 g Clonidine hydrochloride/g calcium sulphate) and”, “When” for “Once”, “was” for “had been”
Clonidine hydrochloride solution (50 μl, 5 mg/ml) was dispensed onto the calcium sulphate coins. When the solution was applied, the coins were set to dry for at least 12 h under ambient conditions.
The temperature was set to approximately 250° C.
as §2
The reference samples represent the amount of clonidine hydrochloride that was loaded before heat treatment.

[11] = calcium sulphate rods soaked in pure nicotine, oven approx. 200° C.

Structure (SMILES): CC(C)Cc1ccc(C(C)C(=O)O)cc1 (stereo not drawn) [ibuprofen]
- amount of ibuprofen remaining after heat treatment ([1]; pore sizes 0.25, 1, 6, 15 and 30 μm, all samples): zero
- degradation of ibuprofen on heating (changes in absorbance at other wavelengths) [1]: no significant degradation

Structure (SMILES): CNS(=O)(=O)Cc1ccc2[nH]cc(CCN(C)C)c2c1 [sumatriptan succinate]
- amount of sumatriptan succinate the rods were able to absorb ([2]; Al2O3 rods soaked in 20 mg/ml solution for 24 hours): approximately 1 mg sumatriptan succinate/rod
- time within which almost all of the sumatriptan succinate was released when heated ([2]; Al2O3 rods soaked in 20 mg/ml solution, oven approx. 300° C.): 5 to 15 min
- time within which almost all of the sumatriptan succinate was released when heated [3]: ≤ 15 min

Structure (SMILES): CN1CCCC1c1cccnc1 (stereo not drawn) [nicotine]
- time within which almost all of the nicotine was released when heated ([4]; aluminium oxide rods soaked in 6 mg/ml nicotine solution (diluted e-juice) 24 hours, oven approx. 200° C.): 5 to 10 min
- amount of nicotine the rods were able to absorb ([4]; aluminium oxide rods soaked in 6 mg/ml nicotine solution for 24 hours): approximately 135 μg nicotine/rod
- amount of nicotine detected in the reference sample (not heated) ([4]; calcium sulphate coins): lower than 20 mg
- nicotine detected in coins after heating versus reference ([4]; calcium sulphate coins, oven approx. 200° C.): a lower release of nicotine was detected after heating
- amount of nicotine the rods were able to absorb ([4]; calcium sulphate rods soaked in pure nicotine for 24 hours): approximately 20 mg nicotine/rod
- nicotine release during heating [4, 11]: Most of the nicotine was released during heating
- nicotine release, 5 min versus 1 min of heating [4, 11]: a higher amount was released during 5 min of heating compared to 1 min of heating
- amount of nicotine detected in the reference sample (not heated) ([4]; geopolymer coins): about 16 mg
- nicotine detected in coins after heating versus reference ([4]; geopolymer coins, oven approx. 200° C.): a lower release of nicotine was detected after heating
- nicotine release on heat treatment in e-cigarette device [5]: a heat treatment in the device will result in a nicotine release
- nicotine release on induction heating, unheated plate ([6]; heated about 1 or about 5 minutes): Most of the nicotine was released within the first minute
- nicotine release on induction heating, pre-heated plate ([6]; plate at least 150° C., heated 5 seconds): a substantial quantity of nicotine was released
- amount of nicotine contained in the coins ([7]; calcium sulphate coins mixed with 5 mg/ml nicotine solution): approximately 180 μg
- amount of nicotine contained in the coins ([7]; calcium sulphate coins mixed with 20 mg/ml nicotine solution): ~390 µg
- amount of nicotine remaining after heat treatment compared to pre-heat treatment control ([8]; pore sizes 0.25, 6, 15 and 30 μm, all samples): very significantly reduced
- degradation of nicotine on heating (changes in absorbance at other wavelengths) [8]: no significant degradation

Structure (SMILES): Clc1cccc(Cl)c1N=C1NCCN1 [clonidine hydrochloride]
- amount of clonidine hydrochloride contained in a coin ([9]; calcium sulphate coins, 0.07 g clonidine hydrochloride/g calcium sulphate, coin approx. 0.3 g): approximately 17 mg
- time within which almost all of the clonidine hydrochloride was released when heated ([9]; pre-loaded calcium sulphate coins, oven approx. 250° C.): ≤ 15 min
- amount of clonidine hydrochloride present in the coins during heating [10]: decreased significantly over time
